Key:
[1] = test system: Sitka spruce somatic embryos; conditions: cited from earlier work
guar tissues = conditions: cited from earlier work
[2] = test system: cultured tissues of Vitis; conditions: cited from earlier work
[3] = test system: A. tumefaciens, supervirulent strain EHA101 (pEHA101/pGT100); conditions: 100 μg/ml, singly or in combination, 52 days in regeneration and elongation media; cited from earlier work
Agrobacterium = conditions: carbenicillin, cefotaxime, ticarcillin for Brassica, Solanum, Rubus respectively; cited from earlier work
[4] = test system: Agrobacterium tumefaciens; test: Growth curve of Agrobacterium tumefaciens in liquid Yeast Mannitol Broth, optical density at 600 nm; type: cell-based; conditions: different concentrations of D-catechin of Acacia species
Procedure: The growth of bacteria is measured spectrophotometrically. The variation of growth is measured for up to 48 hours at an interval of 6 hours each.
Two strains of Agrobacterium tumefaciens viz. EHA105 (mild) and GV2260 (virulent) harbouring the antibiotic resistance genes for kanamycin or hygromycin and the reporter gus gene were inoculated from mother cultures of respective strains into 10–30 ml liquid modified Yeast Mannitol Broth with kanamycin or hygromycin. The cultures were incubated for 12–16 hr at 25–30° C. and 150–200 rpm in dark and harvested at 0.6–0.8 optical density at 600 nm for 1×10^9 cells/ml during log phase of bacterial growth. […] Measurement of optical density at 600 nm at regular 6 hr intervals for 0–48 hr and the mean of three readings were plotted for development of the growth curve.
Crude mixture of catechins as well as caffeine at concentrations of 2–600 μg/ml were added to fresh cultures of Agrobacterium tumefaciens and maintained at 25–30° C. in dark at 150–200 rpm for 48 hr. The optical density was again measured at regular interval of 6 hr each for 0–48 hr for the plotting of the mean of the three readings in a linear graph in order to determine the effect of the crude mixture of catechins as well as caffeine at concentrations of 2–600 μg/ml on fresh cultures of Agrobacterium tumefaciens.

Compound: CC1(C)S[C@@H]2[C@H](NC(=O)C(C(=O)O)c3ccccc3)C(=O)N2[C@H]1C(=O)O (some centres unmarked) [carbenicillin]
- development of mature somatic embryos [1]: prevented the development of mature somatic embryos
- reduction of early stage embryos [1]: > 90%
- reduction of tissue growth [1]: 50%
- phytotoxicity to guar explants (guar tissues): phytotoxic
- effect on plant regeneration [2]: inhibitory effects on plant regeneration
- elimination of A. tumefaciens from the explants [3]: did not eliminate
- elimination of residual Agrobacterium (Agrobacterium): none of the antibiotics tested succeeded in eliminating Agrobacterium

Compound: CO/N=C(\C(=O)N[C@@H]1C(=O)N2C(C(=O)O)=C(COC(C)=O)CS[C@H]12)c1csc(N)n1 [cefotaxime]
- effect on overall tissue growth [1]: no effect
- phytotoxicity to guar explants (guar tissues): phytotoxic
- elimination of A. tumefaciens from the explants [3]: did not eliminate
- elimination of residual Agrobacterium (Agrobacterium): none of the antibiotics tested succeeded in eliminating Agrobacterium

Compound: Oc1cc(O)c2c(c1)OC(c1ccc(O)c(O)c1)C(O)C2 [D-catechin]
- growth of Agrobacterium tumefaciens [4]: promote and not inhibit the growth

Compound: CC1(C)S[C@@H]2[C@H](NC(=O)[C@H](C(=O)O)c3ccsc3)C(=O)N2[C@H]1C(=O)O [ticaracillin, ticarcillin]
- elimination of residual Agrobacterium (Agrobacterium): none of the antibiotics tested succeeded in eliminating Agrobacterium

Compound: CO[C@@]1(NC(=O)Cc2cccs2)C(=O)N2C(C(=O)O)=C(COC(N)=O)CS[C@@H]21 [cefoxitin]
- elimination of A. tumefaciens from the explants [3]: did not eliminate

— patent US7145058B2, “Efficient method of preventing growth of microbial genetic transformant after transformation” (Council of Scientific and Industrial Research, priority 2002, dated 2006)
